In patent US9505749B2, “Quinazolinone compounds and derivatives thereof” (AMGEN INC., priority 2012, dated 2016):
Like-named read-outs stand apart in the source and are kept apart here.

How the values were obtained:
[1] = system: total β-catenin in SW480 colorectal cells; assay: Total β-catenin MSD 96-well plate assay for SW480 cells; conditions: Homo sapiens, SW480, read-out: SW480-Total beta-catenin (TBC) IC50 IP
[2] = system: Axin2 accumulation in SW480 cells; assay: Axin2 384 immunofluorescence assay; format: cell-based; conditions: Homo sapiens, read-out: Axin2 384 IF EC50
PARP2 = PARP2 (Homo sapiens (Human), UniProt Q9UGN5); assay: PARP2 biochemical assay (BPS kit)
[3] = system: 8×TCF promoter-driven Firefly luciferase (Wnt reporter) in DLD-1 colorectal cells; assay: DLD-1-STF assay, constitutively activated Wnt pathway reporter; format: cell-based; conditions: Homo sapiens
Procedure: DLD-1 colorectal cells engineered with an 8×TCF promoter-driven Firefly (FF) luciferase gene (Wnt reporter) along with an EF1a promoter-driven Renilla (RN) luciferase gene (control reporter) were used to measure the potency of tankyrase compounds in the context of the constitutively activated Wnt pathway due to mutated APC in colorectal cancer cells. The engineered DLD-1 cells were plated (45 μL) at a density of 10,000 cells/well in black, clear-bottom, 96-well View plates (PerkinElmer) in normal growth medium (RPMI with 10% FBS with no antibiotics). Tankyrase inhibitors (5 μL) were transferred to cells from a three-fold serially diluted compound plate. A 10-point dilution series was tested starting at a concentration (10 μM final concentration in assay). Column 6 contained only DMSO and served as the “HI” control. A potent Tankyrase inhibitor was used at a final concentration of 10 uM in column 12 which served as the “LO” control. […] The Dual-Glo Reagents (Promega) were added as directed by manufacturer to assay the FF and RN luciferase activity. Luciferase activity was measures using the EnVision multilabel plate reader (PerkinElmer).

PARP1 = PARP1 (Homo sapiens (Human), UniProt P09874); assay: PARP1 biochemical assay (Trevigen kit)
Description: PARP1 biochemical assay was purchased as a kit from Trevigen (cat.#4676-096-K) and used per manufacturers recommendations.

[4] = target: 6×HIS-tankyrase1 (1091-1325) (Homo sapiens (Human), UniProt O95271); assay: Tankyrase 1 biochemical assay (AlphaLisa, PARsylation); conditions: 400 nM NAD, 60 minutes at RT; read-out: TNKS1 IC50
[5] = target: 6×HIS-tankyrase 2 (946-1162) (Homo sapiens (Human), UniProt Q9H2K2); assay: Tankyrase 2 biochemical assay (AlphaLisa, PARsylation); conditions: 250 nM NAD; read-out: TNKS2 IC50
[6] = DLD-1, read-out: DLD1-STF-FF/RL*100 IC50
[7] = DLD-1 cells, 40 to 48 hours, read-out: DLD1-STF-FF/RL*100 IC50

Sequence of PARP1 (P09874 whole entry): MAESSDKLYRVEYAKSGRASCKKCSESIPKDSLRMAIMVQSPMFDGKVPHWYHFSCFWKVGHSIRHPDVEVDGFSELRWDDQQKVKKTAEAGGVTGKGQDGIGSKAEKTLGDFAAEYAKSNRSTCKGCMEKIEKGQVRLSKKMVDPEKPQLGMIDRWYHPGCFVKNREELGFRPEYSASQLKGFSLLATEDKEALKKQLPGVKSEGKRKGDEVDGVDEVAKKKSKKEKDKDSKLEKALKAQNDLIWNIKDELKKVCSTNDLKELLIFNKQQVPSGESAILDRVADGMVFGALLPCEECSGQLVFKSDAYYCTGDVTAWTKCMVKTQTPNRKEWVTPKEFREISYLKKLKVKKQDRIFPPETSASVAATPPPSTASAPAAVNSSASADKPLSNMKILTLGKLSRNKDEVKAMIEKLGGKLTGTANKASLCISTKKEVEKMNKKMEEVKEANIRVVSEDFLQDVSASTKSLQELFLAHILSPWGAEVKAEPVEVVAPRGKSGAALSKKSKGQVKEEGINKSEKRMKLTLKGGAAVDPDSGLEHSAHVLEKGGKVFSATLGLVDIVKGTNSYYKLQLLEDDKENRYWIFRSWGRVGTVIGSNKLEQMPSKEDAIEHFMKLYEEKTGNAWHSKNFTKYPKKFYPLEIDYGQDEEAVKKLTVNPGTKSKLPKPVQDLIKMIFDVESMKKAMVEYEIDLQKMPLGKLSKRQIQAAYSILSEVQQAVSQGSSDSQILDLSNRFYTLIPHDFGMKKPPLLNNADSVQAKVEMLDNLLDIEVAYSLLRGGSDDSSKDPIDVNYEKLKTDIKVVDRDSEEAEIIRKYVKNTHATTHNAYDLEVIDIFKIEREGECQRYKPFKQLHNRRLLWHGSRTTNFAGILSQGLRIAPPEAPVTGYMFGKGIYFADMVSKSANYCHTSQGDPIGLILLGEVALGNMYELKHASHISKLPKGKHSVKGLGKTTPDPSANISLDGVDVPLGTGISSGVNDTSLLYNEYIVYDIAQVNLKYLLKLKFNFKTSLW
Sequence of PARP2 (Q9UGN5 whole entry): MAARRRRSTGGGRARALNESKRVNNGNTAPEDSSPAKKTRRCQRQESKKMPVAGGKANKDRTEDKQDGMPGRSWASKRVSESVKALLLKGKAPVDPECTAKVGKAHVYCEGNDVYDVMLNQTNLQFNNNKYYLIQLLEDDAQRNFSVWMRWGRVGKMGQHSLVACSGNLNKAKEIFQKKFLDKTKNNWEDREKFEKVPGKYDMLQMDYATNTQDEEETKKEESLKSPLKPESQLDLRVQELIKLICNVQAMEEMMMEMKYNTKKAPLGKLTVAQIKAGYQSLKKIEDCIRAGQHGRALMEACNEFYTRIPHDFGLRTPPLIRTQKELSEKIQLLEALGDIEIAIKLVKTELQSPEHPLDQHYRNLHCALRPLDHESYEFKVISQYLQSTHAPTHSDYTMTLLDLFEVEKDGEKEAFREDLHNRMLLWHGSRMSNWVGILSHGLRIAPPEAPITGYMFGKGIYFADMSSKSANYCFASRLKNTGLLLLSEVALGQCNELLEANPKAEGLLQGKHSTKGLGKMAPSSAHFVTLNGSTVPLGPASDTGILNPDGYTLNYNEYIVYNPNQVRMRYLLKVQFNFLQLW
Sequence of 6×HIS-tankyrase 2 (946-1162) (Q9H2K2 946-1162): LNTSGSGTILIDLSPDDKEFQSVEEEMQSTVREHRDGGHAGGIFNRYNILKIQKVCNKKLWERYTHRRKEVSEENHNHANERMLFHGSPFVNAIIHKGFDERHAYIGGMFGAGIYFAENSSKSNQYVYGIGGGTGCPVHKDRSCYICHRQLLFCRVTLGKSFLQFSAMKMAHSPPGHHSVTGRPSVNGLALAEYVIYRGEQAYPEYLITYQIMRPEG
Sequence of 6×HIS-tankyrase1 (1091-1325) (O95271 1091-1325): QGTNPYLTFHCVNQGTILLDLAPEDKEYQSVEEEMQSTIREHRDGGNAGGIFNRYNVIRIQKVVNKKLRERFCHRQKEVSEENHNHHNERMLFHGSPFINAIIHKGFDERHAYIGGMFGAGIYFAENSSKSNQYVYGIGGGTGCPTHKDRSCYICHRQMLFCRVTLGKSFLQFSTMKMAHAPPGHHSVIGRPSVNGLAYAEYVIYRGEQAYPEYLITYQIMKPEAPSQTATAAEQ

| IC50 [4] | IC50 [5] | SMILES | IC50 [1] | EC50 ([2]; SW480 cells, 24 hours) | IC50 (PARP2) | IC50 [3, 6] | EC50 ([2]; SW480, 24 h) | IC50 [3, 7] | IC50 (PARP1) |
| --- | --- | --- | --- | --- | --- | --- | --- | --- | --- |
| – | – | N#Cc1ccc(O[C@H]2CC[C@H](NC(=O)CCSc3nc4ccccc4c(=O)[nH]3)CC2)cc1 [Example 106, N-(trans-4-(4-cyanophenoxy)cyclohexyl)-3-((4-oxo-3,4-dihydroquinazolin-2-yl)thio) propanamide] | 1.9 nM | 4.01 nM | 1760 nM | 0.275 nM | – | – | – |
| – | – | O=C(CCCc1nc2ccccc2c(=O)[nH]1)N[C@H]1CC[C@H](n2c(=O)[nH]c3cc(Cl)ccc32)CC1 [Example 74, N-((1r,4r)-4-(5-chloro-2-oxo-2,3-dihydro-1H-benzo[d]imidazol-1-yl)cyclohexyl)-4-(4-oxo-3,4-dihydroquinazolin-2-yl)butanamide trifluoroacetic acid] | 6.62 nM | – | – | – | 5.34 nM | 1.59 nM | – |
| – | – | O=C(CCCSc1nc2ccccc2c(=O)[nH]1)N[C@H]1CC[C@H](c2nnc(-c3ccccc3)o2)CC1 [Example 110, 4-((4-oxo-3,4-dihydroquinazolin-2-yl)thio)-N-((1r,4r)-4-(5-phenyl-1,3,4-oxadiazol-2-yl)cyclohexyl)butanamide] | 104 nM | 132 nM | 1440 nM | 1.78 nM | – | – | 376 nM |
| – | – | O=C(CCSc1nc2ccccc2c(=O)[nH]1)N[C@H]1CC[C@H](Oc2cccc(Cl)c2)CC1 [Example 112, N-((1r,4r)-4-(3-chlorophenoxy)cyclohexyl)-3-((4-oxo-3,4-dihydroquinazolin-2-yl)thio) propanamide] | 120 nM | 105 nM | – | > 50 nM | – | – | > 85000 nM |
| – | – | N#Cc1cc(O[C@H]2CC[C@H](NC(=O)CCSc3nc4ccccc4c(=O)[nH]3)CC2)ccc1Cl [Example 113, N-((1r,4r)-4-(4-chloro-3-cyanophenoxy)cyclohexyl)-3-((4-oxo-3,4-dihydroquinazolin-2-yl)thio)propanamide] | 24.2 nM | 56 nM | – | > 50 nM | – | – | > 85000 nM |
| – | – | N#Cc1ccc(O[C@H]2CC[C@H](NC(=O)CCSc3nc4ccccc4c(=O)[nH]3)CC2)cc1Cl [Example 114, N-((1r,4r)-4-(3-chloro-4-cyanophenoxy)cyclohexyl)-3-((4-oxo-3,4-dihydroquinazolin-2-yl)thio)propanamide] | 8.08 nM | 8.42 nM | – | 1.08 nM | – | – | > 85000 nM |
| – | – | O=C(CCSc1nc2ccccc2c(=O)[nH]1)N[C@H]1CC[C@H](Oc2ccncc2)CC1 [Example 108, 3-((4-oxo-3,4-dihydroquinazolin-2-yl)thio)-N-((1 r,4r)-4-(pyridin-4-yloxy)cyclohexyl) propanamide] | 6.9 nM | 6.79 nM | 3220 nM | 0.682 nM | – | – | 2760 nM |
| – | – | O=C(CCSc1nc2ccccc2c(=O)[nH]1)N[C@H]1CC[C@H](c2nnc(-c3ccccc3)o2)CC1 [Example 97, 3-((4-oxo-3,4-dihydroquinazolin-2-yl)thio)-N-(trans-4-(5-phenyl-1,3,4-oxadiazol-2-yl)cyclohexyl)propanamide] | 3.69 nM | 3.88 nM | 2450 nM | 0.608 nM | – | – | – |
| – | – | O=C(CCSc1nc2c(c(=O)[nH]1)CCCC2)N[C@H]1CC[C@H](c2nnc(-c3ccccc3)o2)CC1 [Example 115, 3-((4-oxo-3,4,5,6,7,8-hexahydroquinazolin-2-yl)thio)-N-(trans-4-(5-phenyl-1,3,4-oxadiazol-2-yl)cyclohexyl)propanamide] | 11 nM | 14.4 nM | 1120 nM | 1.3 nM | – | – | 3860 nM |
| 1.05 nM | 0.52 nM | N#Cc1ccc(O[C@H]2CC[C@H](NC(=O)CCCc3nc4ccccc4c(=O)[nH]3)CC2)cc1Cl [Example 64, N-(trans-4-(3-chloro-4-cyanophenoxy)cyclohexyl)-4-(4-oxo-3,4-dihydro-2-quinazolinyl)butanamide] | 26.6 nM | 60.9 nM | 288 nM | – | – | 1.26 nM | 257 nM |
| – | – | O=C(CCSc1nc2ccccc2c(=O)[nH]1)N[C@H]1CC[C@H](Oc2ccccn2)CC1 [Example 107, 3-((4-oxo-3,4-dihydroquinazolin-2-yl)thio)-N-((1 r,4r)-4-(pyridin-2-yloxy)cyclohexyl) propanamide] | 15.4 nM | 16.6 nM | 3350 nM | 1.33 nM | – | – | > 85000 nM |
